Assays:
[1] = Columbia-Suicide Severity Rating Scale (C-SSRS); type: in vivo, human; conditions: parts 1-3
Procedure: The Columbia-Suicide Severity Rating Scale (C-SSRS) is a validated tool designed to quantify the severity of suicidal ideation and behavior. This scale was administered by individuals who have received training in its administration, as described in further detail at https://cssrs.columbia.edu/the-columbia-scale-c-ssrs/about-the-scale/.

[2] = Quantitative electroencephalogram (qEEG); type: in vivo, human
Excerpt: Quantitative Electroencephalogram (qEEG or EEG) has gained prominence as a useful biomarker in human drug studies as it is continuous, objective, repeatable, sensitive, reproducible, non-invasive and highly translatable from nonclinical data. EEG serves as biomarker in this protocol and provides PD outcomes for PK-PD modeling, thus enabling a more thorough understanding of the pharmacological effects of Compound 1. In addition, EEG can provide useful safety information regarding detection of epileptiform activity and any pro-convulsive effects of the study drug. Data outputs included spectral analysis and flat brain mapping, among others.
EEG was collected at multiple time points before and after dosing on Day 1 and Day 7 of the MAD portion of the study except for Cohort 8. For a given recording, the subject was fitted with a cap containing the electrodes. For each session, recordings were collected for approximately 15 minutes while subjects are sitting quietly, and include portions with eyes open and eyes closed.
The qEEG is a quantitative measurement of brain oscillations considering different frequency levels. Resting-state brain activity was recorded in 2 conditions (eyes closed and eyes open). For each electrode, a spectral analysis of the EEG signal was carried out to derive absolute and relative powers in standard frequency bands. […]

salivary cortisol levels = experiment: Trier Social Stress Test (TSST), salivary cortisol (Example 2); type: in vivo, human
Procedure: A double-blind, placebo-controlled study was performed in 80 healthy participants to determine the effects of a single dose of Compound 1 in a validated and standardized behavioral challenge, the Trier Social Stress Test (TSST). The TSST is a reliable behavioral model used to examine the neurobiological response to acute stress in humans, whereby an acute stress (and associated acute stress response) is induced under experimentally controlled conditions. The TSST induces stress through public speaking. It incorporates social evaluation and unpredictability, by obliging the person to speak in front of an unresponsive audience and is further followed by a surprise mental arithmetic test. The TSST combines elements of a social-evaluative threat and uncontrollability to produce a consistent and robust physiological and psychological stress response in humans. On the day of the study, the participant was tasked with a speech prompt, for which they had 3 minutes to prepare. The participant was then required to present the speech for 5 minutes to a panel while under the pretense of being recorded. Following the speech, participants were given an unexpected mental arithmetic task. The TSST is more fully described in Allen A et al., Neurobiol. Stress (2017), February; 6:113-126.
The study included a validation cohort and a randomized cohort. The validation cohort (n=10) was given placebo for the purposes of validating the TSST and study endpoints. The randomized cohort […] were randomized and stratified by sex to placebo or 375 mg of Compound 1 in a 1:1 ratio. The cohorts are described in Table 14. An overview of the TSST study design is also depicted in FIG. 4C.
Compound 1 was formulated in combination with excipients Peceol™ (glyceryl monooleate), Kolliphor® RH40 (macrogolglycerol hydroxystearate) and super-refined sesame oil as a clear to yellow viscous solution. Each gram of formulation contains 300 mg of Compound 1, 189 mg of Peceol™, 336 mg Kolliphor® RH40, and 175 mg of super-refined sesame oil. To prepare the final dosage, the required quantity is manually filled into size 17.5 oblong capsules. The placebo contained vehicle only, i.e., the above formulation without Compound 1.
The objective of the study was to evaluate the efficacy of Compound 1 vs. placebo in blunting the response to endpoints measured during and after the TSST procedure. The primary efficacy endpoint was the change from baseline (before TSST procedure) to the peak (maximum change) in salivary cortisol levels as measured before, during, and after the TSST procedure. The primary outcome for determining this was salivary cortisol levels. The key secondary outcomes were be the Numerical Rating Scale (NRS) for stress, anxiety, fear, embarrassment, and excitement. Additional secondary outcomes were the State Trait Anxiety Index (STAI), and blood pressure. Safety and tolerability (i.e., incidence, severity, and duration of treatment-emergent adverse events (TEAEs), serious adverse events (SAEs), and incidence of other clinically relevant signs) were also monitored. Prior to the TSST, a post-dose sample was collected for pharmacokinetic analysis.
To normalize for food effects, participants were served a standardized meal to be consumed approximately 30 minutes prior to dosing with Compound 1. Compound 1 was administered with 240 mL of RT water ~3-4 hours prior to the start of the TSST.
Cortisol levels (including, for example, salivary cortisol levels) are a robust and sensitive marker of stress and the stress hormone response. Salivary cortisol concentrations were collected and measured throughout the study, with the primary endpoint being the maximum change from baseline (pre-TSST).

[3] = Food effect study, PK (Example 1 Part 2)

CCCCCCCC(=O)OCC(COC(=O)CCCCCCC)OC(=O)CC(C)CC(=O)OCOC(=O)O[C@@H]1CC[C@@]2(C)[C@@H](CC[C@@H]3[C@@H]2CC[C@]2(C)[C@@H](C(C)=O)CC[C@@H]32)C1 (stereo partly drawn) [Compound 1]
suicidal ideation or suicidal behavior [1]: No subjects across all parts (1-3) reported any suicidal ideation or suicidal behavior
qEEG power for the β-band (β1, β2, β3) ([2]; cohorts 4 (250 mg), 5 (375 mg), 6 (500 mg)): dose-dependent increase in power
time of maximum qEEG effects following administration ([2]; day 1 and day 7): approximately 4 hours
decrease in salivary cortisol levels versus placebo, maximum non-transformed mean (salivary cortisol levels; 375 mg): ~ 2.2 ×
time during which blunting of salivary cortisol was significantly different from placebo (salivary cortisol levels; 375 mg): up to 30 minutes post-end of TSST
treatment effect size versus placebo, Cohen's d (salivary cortisol levels; 375 mg): 0.72
reduction in salivary cortisol levels post-TSST (salivary cortisol levels; 375 mg, 10 minutes post-TSST): 62.8%
reduction in salivary cortisol levels post-TSST (salivary cortisol levels; 375 mg, 60 minutes post-TSST): 45.5%
mean reduction in salivary cortisol levels post-TSST (salivary cortisol levels; 375 mg, across all time points): 54.4%
blunting of increases in salivary cortisol levels, LSMean change from baseline (pre-TSST) (salivary cortisol levels; single 375 mg oral dose ~3-4 hours before TSST): partial blunting
maximal concentrations and exposure values, combined allopregnanolone compared to allopregnanolone ([3]; 140 mg food effect study): approximately 15 times higher
increase of AUC0-t, AUC0-inf and Cmax in fed (LF) group compared to fasted and fed (HF) groups ([3]; allopregnanolone and combined allopregnanolone, 140 mg): 1.3 to 1.5 fold

— patent publication US20260284079A1, “LIPID PRODRUGS OF ALLOPR[…] USES THEREOF” (Seaport Therapeutics, Inc., priority 2023, published 2026)
